Test results: the C3SDB collision cross section collection
Several values for one entry are separate records, joined by “and”; a condition that tells them apart may be missing. Equal values may be shown once.

Columns and labels:
[1] = instrument: TW, calibrated with polyalanine
[2] = instrument: DT, single field, calibrated with Agilent tune mix (Agilent)
[3] = instrument: TW, calibrated with phosphatidylcholines (ESI+) and phosphatidylethanolamines (ESI-)
[4] = [M-H]-; instrument: DT; stepped-field
[5] = instrument: TW, calibrated with phosphatidylcholines (ESI+) and phosphatidylethanolamines (ESI-); remark: listed apart in the source
[6] = instrument: DT, single field, calibrated with Agilent tune mix (Agilent); remark: listed apart in the source

SMILES	collision cross section (N2) ([1]; [M+H]+)	collision cross section (N2) ([3]; [M-H]-)	further results
N[C@@H](CC(=O)O)C(=O)O [Aspartic acid]	122 Å²	–	–
C[N+](C)(C)C[C@H](O)CC(=O)[O-] [Carnitine]	130 Å²	–	–
CNC[C@H](O)c1ccc(O)c(O)c1 [Epinephrine]	133 Å²	–	collision cross section (N2) ([2]; [M+H-H2O]+): 138.3 Å²; collision cross section (N2) ([2]; [M-H]-): 137.87 Å²
N[C@H]1[C@@H](OP(=O)(O)O)O[C@H](CO)[C@@H](O)[C@@H]1O [Glucosamine 1-phosphate]	153 Å²	–	collision cross section (N2) ([2]; [M+Na]+): 158.5 Å²
O=P(O)(O)OC[C@H](O)CO [Glycerol monophosphate]	–	–	collision cross section (N2) ([1]; [M+Na]+): 132 Å²
NCCCC[C@H](N)C(=O)O [Lysine]	127 Å²	–	–
CC/C=C\C/C=C\C/C=C\CCCCCCCC(=O)OC[C@H](CO[C@@H]1O[C@H](CO)[C@H](O)C(O)C1O)OC(=O)CCCCC/C=C\CCCCCCCC (stereo partly drawn) [MGDG(16:1/18:3)]	–	–	collision cross section (N2) ([3]; [M+NH4]+): 281.2 Å²; collision cross section (N2) ([3]; [M+Na]+): 278.6 Å²
CC/C=C\C/C=C\C/C=C\CCCCCCCC(=O)OC[C@H](CO[C@@H]1O[C@H](CO)[C@H](O)C(O)C1O)OC(=O)CCCCCCC/C=C\C/C=C\C/C=C\CC (stereo partly drawn) [MGDG(18:3/18:3)]	–	276.2 Å²	collision cross section (N2) ([3]; [M+CH3COO]-): 286.3 Å²; collision cross section (N2) ([3]; [M+Cl]-): 278.5 Å²; collision cross section (N2) ([3]; [M+K]+): 282.5 Å²; collision cross section (N2) ([3]; [M+NH4]+): 284.1 Å²; collision cross section (N2) ([3]; [M+Na]+): 281 Å²
NCCC[C@H](N)C(=O)O [Ornithine]	121 Å²	–	–
CCCCCCCCCCCCCCCCC(=O)OC[C@H](COP(=O)(O)O)OC(=O)CCCCCCCCCCCC [PA(30:0)]	–	244.9 Å²	–
CCCCCCCCCCCCCCCCCCC(=O)OC[C@H](COP(=O)(O)O)OC(=O)CCCCCCCCCCCC [PA(32:0)]	–	251.1 Å²	–
Nc1ccc(C(=O)O)cc1 [PABA]	131 Å²	–	–
CCCCCCCCCCCCCCCCCCC(=O)O[C@H](COC(=O)CCCCCCCCCCC)COP(=O)(O)OC[C@@H](O)CO [PG(31:0)]	–	262 Å²	–
CCCCC/C=C\C/C=C\CCCCCCCC(=O)O[C@H](COC(=O)CCCCCCCCCCCC)COP(=O)(O)OC[C@@H](O)CO [PG(31:2)]	–	257.9 Å²	–
CCCCCCC/C=C\CCCCCCCC(=O)O[C@H](CO/C=C\CCCCCCCCCCCCCC)COP(=O)(O)OC[C@@H](O)CO [PG(p33:1)]	–	265.1 Å²	–
CCCCC/C=C\C/C=C\C/C=C\CCCCC(=O)O[C@H](CO/C=C\CCCCCCCCCCCCCC)COP(=O)(O)OC[C@@H](O)CO [PG(p34:3)]	–	264.8 Å²	–
O=C[C@H](O)[C@H](O)[C@H](O)COP(=O)(O)O [Ribose 5-monophosphate]	–	–	collision cross section (N2) ([1]; [M+Na]+): 146 Å²
O=c1ccn([C@@H]2O[C@H](COP(=O)(O)O)[C@@H](O)[C@H]2O)c(=O)[nH]1 [UMP]	–	–	collision cross section (N2) ([1]; [M+Na]+): 168 Å²
OC[C@H]1O[C@@H](O[C@H]2[C@H](O)[C@@H](O)[C@H](O)O[C@@H]2CO)[C@H](O)[C@@H](O)[C@H]1O [lactose]	–	–	collision cross section (N2) ([1]; [M+Na]+): 173 Å²
OC[C@H]1O[C@H](OC[C@H]2O[C@H](O[C@]3(CO)O[C@H](CO)[C@@H](O)[C@@H]3O)[C@H](O)[C@@H](O)[C@@H]2O)[C@H](O)[C@@H](O)[C@H]1O [raffinose]	–	–	collision cross section (N2) ([1]; [M+Na]+): 210 Å²
OC[C@H]1O[C@@](CO)(O[C@H]2O[C@H](CO)[C@@H](O)[C@H](O)[C@H]2O)[C@@H](O)[C@@H]1O [sucrose]	–	–	collision cross section (N2) ([1]; [M+Na]+): 170 Å²
OC[C@H]1O[C@H](O[C@H]2O[C@H](CO)[C@@H](O)[C@H](O)[C@H]2O)[C@H](O)[C@@H](O)[C@@H]1O [trehalose]	–	–	collision cross section (N2) ([1]; [M+Na]+): 173 Å²

The next lines start with results.

collision cross section (N2) ([1]; [M+H]+)	collision cross section (N2) ([3]; [M-H]-)	SMILES	further results
167 Å²	–	Nc1ncnc2c1ncn2[C@@H]1O[C@H](COP(=O)(O)O)[C@@H](O)[C@H]1O [AMP]	–
167 Å²	–	CSC[C@H]1O[C@@H](n2cnc3c(N)ncnc32)[C@H](O)[C@@H]1O [Methylthioadenosine]	–
–	251.4 Å²	CCCCCCCCCCCCCCCCCCC(=O)OC[C@H](COP(=O)(O)O)OC(=O)CCCCCCCCCCCC [PA(16:0/16:0)]	–
–	264.1 Å²	CCCCCCCCCCCCCCCCCCC(=O)O[C@H](COC(=O)CCCCCCCCCCCCCCCC)COP(=O)(O)O [PA(36:0)]	–
–	255.2 Å²	CCCCCCCCCCCCCCCC(=O)O[C@H](COC(=O)CCCCCCCCCCCC)COP(=O)(O)OC[C@@H](O)CO [PG(29:0)]	–
–	258.7 Å²	CCCCCCCCCCCCCCCCCC(=O)OC[C@H](COP(=O)(O)OC[C@@H](O)CO)OC(=O)CCCCCCCCCCC [PG(30:0)]	collision cross section (N2) [4]: 265.6 Å²
–	255 Å²	CCCC/C=C\CCCCCCCC(=O)OC[C@H](COP(=O)(O)OC[C@@H](O)CO)OC(=O)CCCCCCC/C=C\CCCCCC [PG(30:2)]	–
–	261.4 Å²	CCCC/C=C\CCCCCCCC(=O)OC[C@H](COP(=O)(O)OC[C@@H](O)CO)OC(=O)CCCCCCC/C=C\CCCCCCCC [PG(32:2)]	collision cross section (N2) ([5]; [M+Na]+): 269.8 Å²; collision cross section (N2) ([5]; [M-H]-): 261 Å²
–	267 Å²	CCCCCCCC/C=C\CCCCCCCCCC(=O)O[C@H](COC(=O)CCCCCCCCCCCC)COP(=O)(O)OC[C@@H](O)CO [PG(33:1)]	collision cross section (N2) ([6]; [M-H]-): 266.4 Å²; collision cross section (N2) [4]: 273.7 Å²
–	275 Å²	CCCCCCCCCCCCCCCCCCCCC(=O)O[C@H](COC(=O)CCCCCCCCCCCCC)COP(=O)(O)OC[C@@H](O)CO [PG(35:0)]	–
–	273.2 Å²	CCCC/C=C\CCCCCCCC(=O)OC[C@H](COP(=O)(O)OC[C@@H](O)CO)OC(=O)CCCCCCCCCCCCCCCCCCCC [PG(35:1)]	collision cross section (N2) ([6]; [M-H]-): 272.7 Å²; collision cross section (N2) [4]: 280.1 Å²
–	275.7 Å²	CCCCCC/C=C\CCCCCCCC(=O)OC[C@H](COP(=O)(O)OC[C@@H](O)CO)OC(=O)CCCCCCCCCCCCCCCCCCC [PG(36:1)]	collision cross section (N2) ([5]; [M+Na]+): 287.5 Å²; collision cross section (N2) ([5]; [M-H]-): 275.7 Å²; collision cross section (N2) ([6]; [M+H]+): 292 Å²; collision cross section (N2) ([6]; [M+NH4]+): 292.5 Å²; collision cross section (N2) ([6]; [M+Na]+): 287.5 Å²; collision cross section (N2) [4]: 282.9 Å² and 284.1 Å²
–	258.5 Å²	CCCCC/C=C\CCCCCCCC(=O)O[C@H](CO/C=C\CCCCCCCCCCCCCC)COP(=O)(O)OC[C@@H](O)CO [PG(p31:1)]	–
145 Å²	–	CC(C)(CO)[C@@H](O)C(=O)NCCC(=O)O [Pantothenic acid]	–
130 Å²	–	Cc1ncc(CO)c(C(=O)O)c1O [Pyridoxic acid]	–
142 Å²	–	CN=C(NC)NCCC[C@H](N)C(=O)O [SDMA]	–
145 Å²	–	N[C@@H](Cc1c[nH]c2ccccc12)C(=O)O [Tryptophan]	–
172 Å²	–	Nc1ncnc2c1ncn2[C@@H]1O[C@@H]2COP(=O)(O)O[C@H]2[C@H]1O [cAMP]	–
165 Å²	–	N[C@@H](CCC(=O)N[C@@H](CS)C(=O)NCC(=O)O)C(=O)O [glutathione]	–
